Test results reported in ChEMBL document CHEMBL1201861, “Genomics of Drug Sensitity in Cancer screening data, Wellcome Trust Sanger Institute”.

Key:
COLO-741 = assay: cells; assay type: functional, cell-based; details: Homo sapiens
Description: SANGER: Inhibition of human COLO-741 cell growth in a cell viability assay.

COR-L279 = assay: SANGER: Inhibition of human COR-L279 cell growth in a cell viability assay.; assay type: functional, cell-based
CPC-N = assay: cells; assay type: functional, cell-based; details: Homo sapiens;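 also: growth inhibition of CPC-N cells, with a cell viability assay as the readout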
Description: SANGER: Inhibition of human CPC-N cell growth in a cell viability assay.

Calu-1 = assay: SANGER: Inhibition of human Calu-1 cell growth in a cell viability assay.; assay type: functional, cell-based
Capan-2 = assay: cells; assay type: functional, cell-based; details: Homo sapiens;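 also: Capan-2 cell growth inhibition, read out with a viability assay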
Description: SANGER: Inhibition of human Capan-2 cell growth in a cell viability assay.

D-392MG = assay: cells; assay type: functional, cell-based; details: Homo sapiens
D-542MG = assay: cells; assay type: functional, cell-based; details: Homo sapiens
Description: SANGER: Inhibition of human D-542MG cell growth in a cell viability assay.

DMS-53 = assay: cells; assay type: functional, cell-based; details: Homo sapiens;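 also: cell viability assay measuring growth inhibition of human DMS-53 cells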
Description: SANGER: Inhibition of human DMS-53 cell growth in a cell viability assay.

G-402 = assay: cells; assay type: functional, cell-based; details: Homo sapiens
Description: SANGER: Inhibition of human G-402 cell growth in a cell viability assay.

GDM-1 = assay: cells; assay type: functional, cell-based; details: Homo sapiens;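 also: cell viability readout used to measure growth inhibition of human GDM-1 cells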
Description: SANGER: Inhibition of human GDM-1 cell growth in a cell viability assay.

GP5d = assay: cells; assay type: functional, cell-based; details: Homo sapiens;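 also: growth inhibition of human GP5d cells, read out with a cell viability assay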
Description: SANGER: Inhibition of human GP5d cell growth in a cell viability assay.

HCC1569 = assay: cells; assay type: functional, cell-based; details: Homo sapiens;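 also: growth inhibition of human HCC1569 cells, read out with a cell viability assay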
Description: SANGER: Inhibition of human HCC1569 cell growth in a cell viability assay.

HCC1599 = assay: cells; assay type: functional, cell-based; details: Homo sapiens;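 also: growth inhibition of HCC1599 cells, read out in a cell viability assay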
Description: SANGER: Inhibition of human HCC1599 cell growth in a cell viability assay.

HuCCT-1 = assay: cells; assay type: functional, cell-based, HuCCT1; details: Homo sapiens;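 also: growth inhibition of HuCCT-1 cells, read out by a cell viability assay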
Description: SANGER: Inhibition of human HuCCT1 cell growth in a cell viability assay.

Huh-7 = assay: cells; assay type: functional, cell-based; details: Homo sapiens;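 also: HuH-7 cell growth inhibition, read out with a cell viability assay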
Description: SANGER: Inhibition of human HuH-7 cell growth in a cell viability assay.

KARPAS-422 = assay: cells; assay type: functional, cell-based; details: Homo sapiens
Description: SANGER: Inhibition of human KARPAS-422 cell growth in a cell viability assay.

KOSC-2 = assay: cells; assay type: functional, cell-based; details: Homo sapiens;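 also: growth inhibition of KOSC-2 cells, read out by a cell viability assay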
Description: SANGER: Inhibition of human KOSC-2 cell growth in a cell viability assay.

KYSE-140 = assay: cells; assay type: functional, cell-based; details: Homo sapiens;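 also: cell viability assay measuring growth inhibition in human KYSE-140 cells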
Description: SANGER: Inhibition of human KYSE-140 cell growth in a cell viability assay.

LB647-SCLC = assay: cells; assay type: functional, cell-based; details: Homo sapiens;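 also: cell growth inhibition, read out by a viability assay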
Description: SANGER: Inhibition of human LB647-SCLC cell growth in a cell viability assay.

LoVo = assay: cells; assay type: functional, cell-based; details: Homo sapiens;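 also: growth inhibition of human LoVo cells, read out with a cell viability assay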
Description: SANGER: Inhibition of human LoVo cell growth in a cell viability assay.

MDA-MB-134-VI = assay: cells; assay type: functional, cell-based; details: Homo sapiens
Description: SANGER: Inhibition of human MDA-MB-134-VI cell growth in a cell viability assay.

MFE-296 = assay: SANGER: Inhibition of human MFE-296 cell growth in a cell viability assay.; assay type: functional, cell-based
MKN-1 = assay: cells; assay type: functional, cell-based; details: Homo sapiens;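 also: growth inhibition of human MKN1 cells, read out by a cell viability measurement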
Description: SANGER: Inhibition of human MKN1 cell growth in a cell viability assay.

NB1 = assay: cells; assay type: functional, cell-based; details: Homo sapiens;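 also: reduction of NB1 cell proliferation, read out with a viability assay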
Description: SANGER: Inhibition of human NB1 cell growth in a cell viability assay.

NCI-H1693 = assay: cells; assay type: functional, cell-based; details: Homo sapiens;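 also: growth inhibition of the human cell line, read out with a cell viability assay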
Description: SANGER: Inhibition of human NCI-H1693 cell growth in a cell viability assay.

NCI-H1694 = assay: cells; assay type: functional, cell-based; details: Homo sapiens;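 also: cell viability assay measuring inhibition of growth in human NCI-H1694 cells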
Description: SANGER: Inhibition of human NCI-H1694 cell growth in a cell viability assay.

NCI-H1703 = assay: cells; assay type: functional, cell-based; details: Homo sapiens;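 also: growth inhibition of NCI-H1703 cells, read out via a cell viability assay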
Description: SANGER: Inhibition of human NCI-H1703 cell growth in a cell viability assay.

NCI-H2087 = assay: cells; assay type: functional, cell-based; details: Homo sapiens;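 also: growth inhibition determined with a cell viability readout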
Description: SANGER: Inhibition of human NCI-H2087 cell growth in a cell viability assay.

NCI-H2347 = assay: cells; assay type: functional, cell-based; details: Homo sapiens;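 also: growth inhibition of the cell line, read out with a cell viability assay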
Description: SANGER: Inhibition of human NCI-H2347 cell growth in a cell viability assay.

NCI-H2452 = assay: cells; assay type: functional, cell-based; details: Homo sapiens;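 also: growth inhibition of NCI-H2452 cells, read out with a cell viability assay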
Description: SANGER: Inhibition of human NCI-H2452 cell growth in a cell viability assay.

NCI-H716 = assay: cells; assay type: functional, cell-based; details: Homo sapiens;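 also: growth inhibition of human NCI-H716 cells, measured by a cell viability assay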
Description: SANGER: Inhibition of human NCI-H716 cell growth in a cell viability assay.

NCI-H889 = assay: cells; assay type: functional, cell-based; details: Homo sapiens;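 also: cell growth inhibition of the cell line, read out with a viability assay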
Description: SANGER: Inhibition of human NCI-H889 cell growth in a cell viability assay.

OE33 = assay: cells; assay type: functional, cell-based; details: Homo sapiens;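 also: growth inhibition of human OE33 cells, measured by a cell viability assay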
Description: SANGER: Inhibition of human OE33 cell growth in a cell viability assay.

OVCAR-8 = assay: cells; assay type: functional, cell-based; details: Homo sapiens;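 also: growth inhibition of human OVCAR-8 cells, read out by a cell viability assay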
Description: SANGER: Inhibition of human OVCAR-8 cell growth in a cell viability assay.

PANC-03-27 = assay: cells; assay type: functional, cell-based; details: Homo sapiens
Description: SANGER: Inhibition of human PANC-03-27 cell growth in a cell viability assay.

PFSK-1 = assay: cells; assay type: functional, cell-based; details: Homo sapiens;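 also: cell viability assay measuring how strongly compounds suppress growth of human PFSK-1 cells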
Description: SANGER: Inhibition of human PFSK-1 cell growth in a cell viability assay.

RPMI-6666 = assay: cells; assay type: functional, cell-based; details: Homo sapiens
Description: SANGER: Inhibition of human RPMI-6666 cell growth in a cell viability assay.

SJRH30 = assay: cells; assay type: functional, cell-based; details: Homo sapiens;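 also: growth inhibition of human SJRH30 cells, read out with a cell viability assay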
Description: SANGER: Inhibition of human SJRH30 cell growth in a cell viability assay.

SK-N-AS = assay: cells; assay type: functional, cell-based; details: Homo sapiens;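 also: growth inhibition of human SK-N-AS cells, measured with a cell viability assay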
Description: SANGER: Inhibition of human SK-N-AS cell growth in a cell viability assay.

SN12C = assay: cells; assay type: functional, cell-based; details: Homo sapiens;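 also: growth inhibition of human SN12C cells, measured by a cell viability assay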
Description: SANGER: Inhibition of human SN12C cell growth in a cell viability assay.

SNU-449 = assay: cells; assay type: functional, cell-based; details: Homo sapiens
Description: SANGER: Inhibition of human SNU-449 cell growth in a cell viability assay.

ST486 = assay: SANGER: Inhibition of human ST486 cell growth in a cell viability assay.; assay type: functional, cell-based
SW1088 = assay: cells; assay type: functional, cell-based; details: Homo sapiens;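 also: growth inhibition of human SW1088 cells, read out by a cell viability assay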
Description: SANGER: Inhibition of human SW1088 cell growth in a cell viability assay.

SW13 = assay: cells; assay type: functional, cell-based; details: Homo sapiens;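 also: IC50 is inhibition of SW13 cell growth, read out with a cell viability assay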
Description: SANGER: Inhibition of human SW13 cell growth in a cell viability assay.

TCC-SUP = assay: cells; assay type: functional, cell-based; details: Homo sapiens;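 also: growth inhibition of TCC-SUP cells, read out with a cell viability assay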
Description: SANGER: Inhibition of human TCCSUP cell growth in a cell viability assay.

769-P = assay: cells; assay type: functional, cell-based; details: Homo sapiens
Description: SANGER: Inhibition of human 769-P cell growth in a cell viability assay.

A-427 = assay: cells; assay type: functional, cell-based; details: Homo sapiens;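 also: growth inhibition of human A-427 cells, read out by a cell viability assay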
Description: SANGER: Inhibition of human A427 cell growth in a cell viability assay.

BHY = assay: cells; assay type: functional, cell-based; details: Homo sapiens;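 also: cell growth inhibition read out by a viability assay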
Description: SANGER: Inhibition of human BHY cell growth in a cell viability assay.

CAKI-1 = assay: cells; assay type: functional, cell-based; details: Homo sapiens;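 also: growth inhibition of CAKI-1 cells, measured by a cell viability assay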
Description: SANGER: Inhibition of human CAKI-1 cell growth in a cell viability assay.

CAL-120 = assay: cells; assay type: functional, cell-based; details: Homo sapiens;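 also: cell growth inhibition, read out as cell viability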
Description: SANGER: Inhibition of human CAL-120 cell growth in a cell viability assay.

CAL-27 = assay: cells; assay type: functional, cell-based; details: Homo sapiens;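 also: Viability-based readout, IC50 reflecting inhibition of CAL-27 cell growth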
Description: SANGER: Inhibition of human CAL-27 cell growth in a cell viability assay.

CAL-33 = assay: cells; assay type: functional, cell-based; details: Homo sapiens;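 also: growth inhibition of CAL-33 cells, read out with a cell viability assay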
Description: SANGER: Inhibition of human CAL-33 cell growth in a cell viability assay.

CAL-51 = assay: cells; assay type: functional, cell-based; details: Homo sapiens;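 also: human CAL-51 cell line, growth inhibition read out via a cell viability assay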
Description: SANGER: Inhibition of human CAL-51 cell growth in a cell viability assay.

CAL-85-1 = assay: cells; assay type: functional, cell-based; details: Homo sapiens;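 also: growth inhibition of human CAL-85-1 cells, read out with a cell viability assay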
Description: SANGER: Inhibition of human CAL-85-1 cell growth in a cell viability assay.

TUR = assay: cells; assay type: functional, cell-based; details: Homo sapiens;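 also: growth inhibition of human TUR cells, read out with a cell viability assay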
Description: SANGER: Inhibition of human TUR cell growth in a cell viability assay.

UACC-812 = assay: cells; assay type: functional, cell-based; details: Homo sapiens
Description: SANGER: Inhibition of human UACC-812 cell growth in a cell viability assay.

UMUC3 = assay: cells; assay type: functional, cell-based; details: Homo sapiens;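 also: growth inhibition of human UM-UC-3 cells, read out with a cell viability assay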
Description: SANGER: Inhibition of human UM-UC-3 cell growth in a cell viability assay.

WSU-NHL = assay: cells; assay type: functional, cell-based; details: Homo sapiens;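 also: growth inhibition of human WSU-NHL cells, read out with a cell viability assay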
Description: SANGER: Inhibition of human WSU-NHL cell growth in a cell viability assay.

CCF-STTG1 = assay: cells; assay type: functional, cell-based; details: Homo sapiens;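 also: growth inhibition of human CCF-STTG1 cells, determined with a cell viability read-out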
Description: SANGER: Inhibition of human CCF-STTG1 cell growth in a cell viability assay.

COLO-679 = assay: cells; assay type: functional, cell-based; details: Homo sapiens
Description: SANGER: Inhibition of human COLO-679 cell growth in a cell viability assay.

COLO-680N = assay: cells; assay type: functional, cell-based; details: Homo sapiens;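 also: cell viability assay used to measure inhibition of COLO-680N cell growth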
Description: SANGER: Inhibition of human COLO-680N cell growth in a cell viability assay.

C/C(O)=C(\C#N)C(=O)Nc1cc(Br)ccc1Br
IC50 (COLO-741): > 16 µM
IC50 (COR-L279): > 16 µM
IC50 (CPC-N): > 16 µM
IC50 (Calu-1): > 16 µM
IC50 (Capan-2): > 16 µM
IC50 (D-392MG): > 16 µM
IC50 (D-542MG): > 16 µM
IC50 (DMS-53): > 16 µM
IC50 (G-402): > 16 µM
IC50 (GDM-1): > 16 µM
IC50 (GP5d): > 16 µM
IC50 (HCC1569): > 16 µM
IC50 (HCC1599): > 16 µM
IC50 (HuCCT-1): > 16 µM
IC50 (Huh-7): > 16 µM
IC50 (KARPAS-422): > 16 µM
IC50 (KOSC-2): > 16 µM
IC50 (KYSE-140): > 16 µM
IC50 (LB647-SCLC): > 16 µM
IC50 (LoVo): > 16 µM
IC50 (MDA-MB-134-VI): > 16 µM
IC50 (MFE-296): > 16 µM
IC50 (MKN-1): > 16 µM
IC50 (NB1): > 16 µM
IC50 (NCI-H1693): > 16 µM
IC50 (NCI-H1694): > 16 µM
IC50 (NCI-H1703): > 16 µM
IC50 (NCI-H2087): > 16 µM
IC50 (NCI-H2347): > 16 µM
IC50 (NCI-H2452): > 16 µM
IC50 (NCI-H716): > 16 µM
IC50 (NCI-H889): > 16 µM
IC50 (OE33): > 16 µM
IC50 (OVCAR-8): > 16 µM
IC50 (PANC-03-27): > 16 µM
IC50 (PFSK-1): > 16 µM
IC50 (RPMI-6666): > 16 µM
IC50 (SJRH30): > 16 µM
IC50 (SK-N-AS): > 16 µM
IC50 (SN12C): > 16 µM
IC50 (SNU-449): > 16 µM
IC50 (ST486): > 16 µM
IC50 (SW1088): > 16 µM
IC50 (SW13): > 16 µM
IC50 (TCC-SUP): > 16 µM
IC50 (769-P): > 16 µM
IC50 (A-427): > 16 µM
IC50 (BHY): > 16 µM
IC50 (CAKI-1): > 16 µM
IC50 (CAL-120): > 16 µM
IC50 (CAL-27): > 16 µM
IC50 (CAL-33): > 16 µM
IC50 (CAL-51): > 16 µM
IC50 (CAL-85-1): > 16 µM
IC50 (TUR): > 16 µM
IC50 (UACC-812): > 16 µM
IC50 (UMUC3): > 16 µM
IC50 (WSU-NHL): > 16 µM
IC50 (CCF-STTG1): > 16 µM
IC50 (COLO-679): > 16 µM
IC50 (COLO-680N): > 16 µM

C/C=C(/C)C(=O)O[C@H]1C(C)=C2[C@H]([C@@H]1OC(=O)CCCCCCC)[C@@](C)(OC(C)=O)C[C@H](OC(=O)CCC)[C@@]1(O)[C@H]2OC(=O)[C@@]1(C)O [THAPSIGARGIN]
IC50 (COLO-741): 0.0109 µM
IC50 (COR-L279): 0.0363 µM
IC50 (CPC-N): 0.01 µM
IC50 (Calu-1): 0.0021 µM
IC50 (Capan-2): < 0.002 µM
IC50 (D-392MG): > 0.512 µM
IC50 (D-542MG): 0.00693 µM
IC50 (DMS-53): 0.38 µM
IC50 (G-402): 0.00395 µM
IC50 (GDM-1): 0.23 µM
IC50 (GP5d): 0.0417 µM
IC50 (HCC1569): 0.0179 µM
IC50 (HCC1599): 0.194 µM
IC50 (HuCCT-1): 0.00433 µM
IC50 (Huh-7): < 0.002 µM
IC50 (KARPAS-422): 0.0239 µM
IC50 (KOSC-2): 0.425 µM
IC50 (KYSE-140): < 0.002 µM
IC50 (LB647-SCLC): 0.00486 µM
IC50 (LoVo): 0.0104 µM
IC50 (MDA-MB-134-VI): > 0.512 µM
IC50 (MFE-296): 0.00295 µM
IC50 (MKN-1): 0.0474 µM
IC50 (NB1): 0.0271 µM
IC50 (NCI-H1693): > 0.512 µM
IC50 (NCI-H1694): 0.0728 µM
IC50 (NCI-H1703): 0.0101 µM
IC50 (NCI-H2087): 0.000546 µM
IC50 (NCI-H2347): 0.0102 µM
IC50 (NCI-H2452): > 0.512 µM
IC50 (NCI-H716): > 0.512 µM
IC50 (NCI-H889): > 0.512 µM
IC50 (OE33): 0.0469 µM
IC50 (OVCAR-8): 0.025 µM
IC50 (PANC-03-27): < 0.002 µM
IC50 (PFSK-1): 0.0128 µM
IC50 (RPMI-6666): 0.0426 µM
IC50 (SJRH30): 0.00884 µM
IC50 (SK-N-AS): 0.0485 µM
IC50 (SN12C): 0.0166 µM
IC50 (SNU-449): 0.00418 µM
IC50 (ST486): 0.00177 µM
IC50 (SW1088): 0.324 µM
IC50 (SW13): 0.00938 µM
IC50 (TCC-SUP): 0.0516 µM
IC50 (769-P): 0.0323 µM
IC50 (A-427): 0.00212 µM
IC50 (BHY): 0.00226 µM
IC50 (CAKI-1): 0.0834 µM
IC50 (CAL-120): 0.0441 µM
IC50 (CAL-27): < 0.002 µM
IC50 (CAL-33): 0.0307 µM
IC50 (CAL-51): 0.000971 µM
IC50 (CAL-85-1): 0.00603 µM
IC50 (TUR): 0.0125 µM
IC50 (UACC-812): > 0.512 µM
IC50 (UMUC3): 0.00121 µM
IC50 (WSU-NHL): 0.00554 µM
IC50 (CCF-STTG1): 0.0673 µM
IC50 (COLO-679): < 0.002 µM
IC50 (COLO-680N): 0.018 µM
